# What was measured:
# [1] = test system: insulin-stimulated glucose disposal; conditions: 13 patients with type 2 diabetes, single intravenous infusion; cited from earlier work
# insulin sensitivity [2] = conditions: 20 patients with type 2 diabetes, intravenous infusion for ten days, measured 24 hours after the last infusion; cited from earlier work
# insulin sensitivity [3] = conditions: 72 patients with type 2 diabetes, oral administration, after four weeks of treatment; cited from earlier work
# kappa opioid receptors = biological target: T1, kappa opioid receptors (Mus musculus, UniProt P33534); test: Tail-flick assay, antagonism of analgesia produced by selective kappa opioid agonists (U50488H, Bremazocine, U69593); assay type: in vivo, ICR-CD1 mice; conditions: mice, i.c.v.; for antagonism of the analgesia produced by selective kappa opioid agonists (% MPE): agonists U50488H, Bremazocine, U69593
# T1 construct: from tissue; host or cells: living ICR-CD1 mice (central nervous system, i.c.v. dosing)
# T1 sequence (P33534 whole entry): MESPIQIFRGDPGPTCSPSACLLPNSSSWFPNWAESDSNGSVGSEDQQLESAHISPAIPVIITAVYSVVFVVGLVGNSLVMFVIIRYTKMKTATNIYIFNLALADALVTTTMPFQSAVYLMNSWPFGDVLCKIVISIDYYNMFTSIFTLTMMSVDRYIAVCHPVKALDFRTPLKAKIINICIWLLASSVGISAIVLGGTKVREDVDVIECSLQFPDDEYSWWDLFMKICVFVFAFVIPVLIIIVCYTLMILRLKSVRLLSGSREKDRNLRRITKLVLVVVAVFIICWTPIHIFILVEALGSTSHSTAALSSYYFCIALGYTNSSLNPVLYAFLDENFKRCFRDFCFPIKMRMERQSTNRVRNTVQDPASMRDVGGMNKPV
# Protocol: (§1) The testing protocol involved the tail-flick assay. For the measurement of the tail-flick latency, ICR-CD1 mice, mice were held gently in one hand with the tail positioned in the apparatus (Tail Flick Analgesia Meter, Columbus Instruments, Columbus, Ohio) for radiant heat stimulus. The tail-flick response was elicited by applying radiant heat to the dorsal side of the tail. The intensity of the heat was set so that the mouse flicks its tail within 2 to 3 seconds. The test latency was measured before treatment of the agonist control, and again after the antagonist treatment at the time of peak agonist activity.
# (§2) At least three groups of four to ten mice were used for each dose response curve. ED50 values with 95% confidence intervals (C.I.) were computed with GraphPad Prism 4 using nonlinear regression methods. […] Antinociception was quantified as the percent maximal possible effect (% MPE), which is calculated as: % MPE=(Test−Control/10−Control)×100. GNTI.2HCl or GNTI.2LA. The data for the dihydrochloride salt (Sigma GNTI2HCl) and the di-lipoic acid salt, GNTI.2LA (identified as WY-120) are shown in FIGS. 1 and 2. The data are expressed as bar graphs that indicate the % maximum possible effect (% MPE) of GNTI-.2HCl or GNTI.2LA in antagonizing the analgesia produced by selective kappa opioid agonists (U50488H, Bremazocine, U69593) or delta opioid agonists (DPDPE, DEL II) by the intracerebroventricular (i.c.v.) route of administration to mice.
# [4] = biological target: T2, (Mus musculus, UniProt P32300); test: Tail-flick assay, antagonism of analgesia produced by delta opioid agonists (DPDPE, DEL II); assay type: in vivo, ICR-CD1 mice; conditions: mice, i.c.v.
# T2 construct: by the intracerebroventricular (i.c.v.) route of administration to mice; from tissue; host or cells: living ICR-CD1 mice (central nervous system, i.c.v. dosing)
# T2 sequence (P32300 whole entry): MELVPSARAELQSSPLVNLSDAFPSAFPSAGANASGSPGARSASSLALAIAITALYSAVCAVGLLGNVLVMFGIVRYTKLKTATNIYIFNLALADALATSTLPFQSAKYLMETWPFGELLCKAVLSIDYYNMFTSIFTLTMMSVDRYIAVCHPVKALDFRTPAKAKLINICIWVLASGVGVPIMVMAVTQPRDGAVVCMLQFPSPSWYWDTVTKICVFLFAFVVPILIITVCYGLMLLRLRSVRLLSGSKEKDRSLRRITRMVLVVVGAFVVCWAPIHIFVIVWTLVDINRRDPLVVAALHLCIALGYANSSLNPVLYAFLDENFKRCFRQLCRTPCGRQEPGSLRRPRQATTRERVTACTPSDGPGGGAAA
# Protocol: as §1
# as §2, with “The data for the dihydrochloride salt (Sigma GNTI2HCl) and the di-lipoic acid salt, GNTI.2LA (identified as WY-120) are shown in FIGS. 1 and 2.” left out
SMILES,improvement of insulin-stimulated glucose disposal compared to a placebo infusion [1] [%],insulin sensitivity (insulin sensitivity [2]),improvement of insulin sensitivity (insulin sensitivity [3]) [%],antagonism of the analgesia produced by selective kappa opioid agonists (% MPE) (kappa opioid receptors),antagonism of the analgesia produced by delta opioid agonists (% MPE) [4],kappa opioid antagonist selectivity compared with GNTI.2HCl (kappa opioid receptors; kappa versus delta agonists)
"O=C(O)CCCCC1CCSS1 (centres unmarked) [LA, 1,2-dithiolane-3-pentanoic acid]",50,improved insulin sensitivity,25,–,–,–
Cl.Cl.NC(N)=Nc1ccc2[nH]c3c(c2c1)C[C@@]1(O)[C@H]2Cc4ccc(O)c5c4[C@@]1(CCN2CC1CC1)[C@H]3O5 [GNTI.2HCI],–,–,–,selectively antagonize the different kappa agonists,not significantly affected,–
"N=C(N)Nc1ccc2[nH]c3c(c2c1)C[C@@]1(O)C2Cc4ccc(O)c5c4[C@@]1(CCN2CC1CC1)[C@H]3O5 [GNTI.2LA, GNTI Dilipoate]",–,–,–,selectively antagonize the different kappa agonists,not significantly affected,not significantly different

# Source: patent US10034871B2, “Salts and compositions useful for treating disease” (REGENTS OF THE UNIVERSITY OF MINNESOTA, priority 2014, dated 2018)
